Assay results: patent US6716596B2, “Agents for replacement of NAD+/NADH system in enzymatic reactions” (The Regents of the University of California, priority 2001, dated 2004)
Where a name gives a salt, the structure may show the parent alone.

What was measured:
[1] = molecular target: T1, horse liver alcohol dehydrogenase (HLADH) (Equus caballus, UniProt P00327); assay: HLADH enzymatic chiral reduction of ketones with biomimic co-factor regeneration; assay type: biochemical; conditions: for turnover frequency of chiral ketone reduction: ketone (12) reduced by HLADH with co-factor regeneration, 24 hours
T1 construct: purchased Sigma
Method: FIG. 7 presents structures of ketone substrates 12-15 used for biomimic chiral synthesis of corresponding alcohols. Conversion of the substrates 12-15 to their corresponding alcohols are expressed in % yield, and TOF in d^−1 and S-enantiomer excess (ee) are also shown for each conversion. Corresponding values obtained with NAD^+ are given in parenthesis. The S-enantiomeric excess (ee) was determined by GLC with a modified β-cyclodextrin capillary column.
(§1) [Cp*Rh(bpy)(H2O)]OTf2 (1.9 mg, 2.61×10^−3 mmol), sodium formate (17.8 mg, 261.69×10^−3 mmol), NAD^+ (8.1 mg, 11.23×10^−3 mmol) and HLADH (10 units) were placed in a 10 mL Schlenk flask, and Schlenk techniques were followed to deoxygenate the solid mixture.
(§2) Under positive argon pressure, 5 mL of potassium phosphate buffer (100 mM, pH=7.02, deoxygenated) and carbonyl substrate (83.58×10^−3 mmol, deoxygenated) were added via syringe. The reaction flask was immediately securely capped with a glass-stopper and shaken with a shaker in 30° C. water-bath. The reaction was monitored by gas chromatography (GC), equipped with a β-cyclodextrin column (Supelco, β-DEX-225), and the products were identified by comparing the retention time with the corresponding authentic chiral samples and were confirmed by GC-MS. The enantiomeric excess of the products was determined directly by their relative area in the chromatogram. The progress of the reaction was obtained by mixing the reaction aliquot with an internal standard (cyclohexanol in phosphate buffer), and then calibrating the measured relative area in the chromatogram with their corresponding response factors. The reaction was monitored for 24 hours.
The same procedure as described in section A was followed, except that NAD^+ was substituted with any one of the biomimic compounds of the invention.

[2] = regioselective reduction of biomimics with catalyst precursor (2) and sodium formate, followed by 1H NMR; conditions: for turnover frequency (TOF) in the regioselective reduction: reduction to 1,4-dihydro derivative, NAD+ under the same conditions; for catalytic hydride transfer: reduction with (2) and HCO2Na, 1H NMR
Method: The relative rates, seen tabulated in FIG. 1C, were determined by observing disappearance of the pyridinium signals versus an internal standard, [(CH3)4N]OTf (tetramethylammonium triflate), during the first 2 hours, where the relative rate of 1-benzylnicotinamide triflate (1) was set to 1.0. The turnover frequencies were calculated by the formation of mmol of product/mmol of catalyst/hour. The total turnover number in 24 hours was ˜95 for all substrates that gave product. The reactions were conducted in presilylated J. Young NMR tubes and were followed by ^1H NMR.
The electronic effect of differently substituted nicotinamide substrates was determined by their relative rates. The relative rates of these compounds were determined by observing the disappearance of the pyridinium signals compared to interval standard, [(CH3)4N]OTf, during the first 2 hours, where the relative rate of compound (1a) was 1.0.
In a typical reaction, a J. Young NMR tube was charged, biomimic substrates (1a)-(1i) (1.0 mol), 2 (1% mol), and HCO2Na (1.1 mol) used as the hydride source and a Schlenk techniques were conducted to deoxygenate the solid mixture. A diluted solvent was added to these solids for compounds (1a)-(1i), the solvent was D2O-THF-d8 (1=1 0.75 mL, deoxygenated), and the NMR tube was placed in a liquid nitrogen bath. The contents were further degassed by two successive freeze-pump-thaw cycles. After thawing out the reaction mixture, the J. Young NMR tube was immediately put in a salted ice-bath and covered with aluminum foil. The reaction was then followed by ^1H NMR spectroscopy at 26° C. temperature, after a speedy thawing out.
The given relative rates and turnover frequencies were determined by decreasing integration of the corresponding pyridinium salts measured against an internal standard, (CH3)4N(OTf), during the first 2 h of the reaction. The ratios of the 1,4- and 1,6-dihydronicotinamide derivatives of compounds (1a), (1b) and (1d)-(1g) were obtained by comparison of the resonance signals with those of authentic samples, where the diagnostic signal is the resonance for —CH2Ph moiety which can be identified unambiguously in the ^1H NMR spectrum.

[3] = UV-vis kinetics of the regioselective reduction with rhodium catalyst precursor (2) and formate; conditions: for TOF / ri initial rate: 294° K, H2O at pH 6.54, substrate 1.55 × 10^−3 M; for ri initial rate: average of two runs; for initial rate, times higher than compound (1) in THF/H2O (1:1): acqueous medium, comparable concentrations
Text: The kinetics of the regioselective reduction reactions were further studied utilizing UV-vis techniques with the two biomimic compounds (1) and (6) and the results were compared to NAD^+ itself. Experimental conditions are described in Example 9.
The effect of the initial rate (ri) at low conversions to the 1,4-dihydro product (˜10%) was ascertained by varying the amount of substrate precatalyst (2) and sodium formate concentrations.
The initial rates (ri) of formation of compound (3) were obtained from plots of concentration (absorbance at 354 nm/ε) versus time at low conversions (˜10%). The values of kcat were calculated at 299° K.
Rates were obtained via UV-vis techniques and are an average of two runs.
This example describes studies producing kinetic and thermodynamic data for 1-benzylnicotinamide triflate (1a) performed in THF/H2O, 1:1, β-nicotinamide -5′-ribose methyl phosphate (6) H2O, pH=6.5, and NAD^+ performed in the regioselective reduction with [Cp*Rh(bpy)H2O)][OTf]2, 2 and in the presence of formate ion.
The kinetic experiments were carried out on a Hewlett Packard 8452A Diode Array Uv-Vis spectrophotometer, attached to a circulating water bath (VWR 1160). For experiments conducted at different temperatures, the circulating water bath, as well as the UV-vis instrument, were warmed up for at least an 1 hour before the kinic studies were initiated.
The 1-benzylnicotinamide triflate (1a) [CP*Rh(bpy)(H2O)][OTf]2 (2) and 1-benzyl-1,4 dihydronicotinamide (3) were synthesized by methods as described in Examples 2, 4 and 7. The NAD^+ and 1,4-NADH compounds were purchased from Sigma and used as received. The THF was distilled from Na and deoxygenate with N2 gas for 1 hour. Distilled water was purchased from Aldrich Chemical Co and deoxygenate prior to being used. A solution of THF/H2O (similar for 1:1 or 1:4 ratios) was used for all the kinetic experiments performed for compounds of 1-benzylnicotinamide type, unless otherwise specified. A stock solution of biomimic (1a) (0.018 M), 2 (6.23×10^−3 M), and sodium formate (0.25 M) were made for the kinetic experiments in THF/H2O (1:1).
A solution of 1-benzylnicotinamide triflate (1a), (4.29×10^−3 M) and sodium formate (0.0539) was made in a volumetric flask (10 mL) under N2 in a THF/H2O (1:1) mixture. The different concentration of biomimic (1a) and sodium formate used for the kinetic experiments are reported above.
A 3.0 mL aliquot of this solution was transferred to a thermostated UV-vis cell by using an air-free syringe, which was also purged with N2 gas. The sample was then brought to the desired temperature for 30-60 min in the UV-vis spectrophotometer thermostated cell holder. Then, 23 μL of a 6.23×10^−3 M stock solution of [CP*Rh(bpy)(H2O)^2+ (2), was added-by syringe under a positive N2 pressure, quickly mixed with the solution, and the absorbance increase at 354 nm was immediately recorded. The experiment was carried out for 2 hours and the formation of the product, 1-benzyl-1,4-dihydronicotinamide, (3) was followed, with the change in absorbance being recorded every 90 seconds. Some kinetic experiments were carried out until all the starting material was converted to product. The induced volume change was taken into account for the calculation of the turnover frequency (TOF).
The kinetic experiments for the β-nicotinamide-5′-ribose methyl phosphate (6) and natural NAD^+ were performed using the same general procedure described above. These kinetic experiments were carried out in H2O and the concentration of β-nicotinamide-5′-ribose methyl phosphate (6) or NAD^+, sodium formate, and [Cp*Rh(bpy)(H2O)]^2+ (2), were in the order of 1.50×10^−3, 0.0186 M, and 1.42×10^−5 M, respectively. The λmax for the β-nicotinamide-5′-ribose methyl phosphate, (6), and natural NAD^+ was 336 nm. In all the initial rate plots, time =0 s was removed from the plots of Concentration versus Time. The standard deviation of the ri were calculated from 2σ values.

[4] = stability observations (light, air, solvent); assay type: physicochemical
[5] = molecular target: T1, horse liver alcohol dehydrogenase (HLADH); assay: biomimetic reduction of norcamphor (racemic); assay type: biochemical; conditions: for exo/endo alcohols formed from norcamphor enantiomer: reaction with the biomimics of the invention
Method: Biomimic yield expressed in equivalent was 86% corresponding to NAD^+ yield of 94% under the same conditions.
as §1, §2
The procedure described in section A is equally applicable to reduction of racemic compounds such as norcamphor, seen in FIG. 8. The method requires the following modification. Due to the sublimation of norcamphor in vacuo, the addition of norcamphor was conducted under positive argon pressure, followed by the addition of phosphate buffer via syringe.

[6] = competitive regioselective substrate reduction experiments with rhodium catalyst precursor (2); conditions: for times faster than compound (1): competitive reduction with compound (1); for competitive rate: reduced in the presence of compound (1a)
Method: In order to establish whether the σ-donating ability or the electron-withdrawing effect of the 3-substituent of the 1-benzylnicotinamide was the important parameter, several competitive substrate reduction experiments were performed.
For this purpose, the compound (1a) 1-benzylnicotinamide, was reduced with rhodium catalyst precursor (2) in the presence of its alternatively substituted derivatives, compounds (1e), substituted with —C(O)—CH3, (1g), substituted with (—CN), (1d), substituted with —C(S)NH2 or (1f), substituted with —C(O)OCH3, and their competitive reduction was determined.

T1 sequence (P00327 2-375 limits assumed): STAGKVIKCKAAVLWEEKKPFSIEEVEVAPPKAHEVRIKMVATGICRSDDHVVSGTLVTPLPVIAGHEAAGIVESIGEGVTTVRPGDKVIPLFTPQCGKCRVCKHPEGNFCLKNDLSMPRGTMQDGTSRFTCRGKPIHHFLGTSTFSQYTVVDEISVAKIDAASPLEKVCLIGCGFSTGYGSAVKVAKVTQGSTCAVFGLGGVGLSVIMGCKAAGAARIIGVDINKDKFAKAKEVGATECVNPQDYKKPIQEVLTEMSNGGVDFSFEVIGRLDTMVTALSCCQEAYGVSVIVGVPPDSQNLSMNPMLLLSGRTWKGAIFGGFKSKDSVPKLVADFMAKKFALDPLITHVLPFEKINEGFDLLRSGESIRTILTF

CC(=O)c1ccccc1 [Compound 14, acetophenone]
enantiomeric excess of chiral alcohol from the ketone substrate, S-enantiomer [1]: > 96 % ee
yield of chiral product [1]: 5%

COP(=O)([O-])OC[C@H]1O[C@@H]([n+]2cccc(C(N)=O)c2)[C@H](O)[C@@H]1O [Compound 6, β-nicotinamide ribose-5′-methyl phosphate]
TOF, times higher than those of compounds (1a)-(1i) [2]: approximately 2.5 times
TOF, times higher than 1-benzylnicotinamide ([2]; in water vs 1-benzylnicotinamide in THF/water): about 2.5 times
turnover frequency (TOF) in the regioselective reduction [2]: 20 h⁻¹
TOF [3]: 7 h⁻¹
ri initial rate [3]: 2.82e-08 M/s
initial rate, times higher than compound (1) in THF/H2O (1:1) [3]: ~3 times
recognition by HLADH as hydride catalyst of the chiral conversion [1]: recognizes
turnover frequency of chiral ketone reduction [1]: ~30 day⁻¹
stability [4]: light-sensitive and somewhat air-sensitive

NC(=O)C1=CN([C@@H]2O[C@H](COP(=O)(O)OP(=O)(O)OC[C@H]3O[C@@H](n4cnc5c(N)ncnc54)[C@H](O)[C@@H]3O)[C@@H](O)[C@H]2O)C=CC1 [NAD^+, β-Nicotinamide adenine dinucleotide, reference compound]
turnover frequency (TOF) in the regioselective reduction [2]: 18 h⁻¹
TOF [3]: 9 h⁻¹
ri initial rate [3]: 3.1e-08 M/s
initial rate, times higher than compound (1) in THF/H2O (1:1) [3]: ~3 times
turnover frequency of chiral ketone reduction [1]: ~30 day⁻¹
yield of norcamphor reduction expressed in equivalent ([5]; racemic norcamphor, same conditions for NAD^+): 94%

COC(=O)c1ccc[n+](Cc2ccccc2)c1.O=S(=O)([O-])C(F)(F)F [Compound 1f, 1-Benzyl-3-carbomethoxypyridinium Triflate]
times faster than compound (1) [6]: 1.2 times

NC(=O)C1=CN(Cc2ccccc2)C=CC1 [Compound 3, 1-benzyl-1,4-dihydronicotinamide]
recognition by HLADH as hydride catalyst of the chiral conversion [1]: recognizes

CC(=O)Cc1ccccc1 [Compound 13, benzylmethylketone]
enantiomeric excess of chiral alcohol from the ketone substrate, S-enantiomer [1]: > 99 % ee

CC(=O)c1ccc[n+](Cc2ccccc2)c1.O=S(=O)([O-])C(F)(F)F [Compound 1e, 1-Benzyl-3-acetylpyridinium Triflate]
competitive rate [6]: 0.9

O=C1CC2CC[C@H]1C2 (racemic) [Compound 16, norcamphor]
exo/endo alcohols formed from norcamphor enantiomer [5]: exclusively the endo alcohol

[Cp*Rh(η^2-(N,N)-2,2′-bipyridyl)(H2O)](OTf)2 [Compound 2]
stability [4]: stable as a solid in the air

Cc1ccc[n+](Cc2ccccc2)c1.O=S(=O)([O-])C(F)(F)F [Compound 1h, 1-Benzyl-3-methylpyridinium triflate]
catalytic hydride transfer [2]: not observed

O=C1CC2CC[C@H]1C2 (racemic) [Compound 17, norcamphor]
exo/endo alcohols formed from norcamphor enantiomer [5]: approximately equal mixture of exo and endo alcohols

COP(=O)(O)OC[C@H]1O[C@@H](N2C=CCC(C(N)=O)=C2)[C@H](O)[C@@H]1O
stability [4]: both light- and air-sensitive

O=S(=O)([O-])C(F)(F)F.c1ccc(C[n+]2ccccc2)cc1 [Compound 1i, 1-Benzyl-pyridinium triflate]
catalytic hydride transfer [2]: not observed

C[n+]1cccc(C(N)=O)c1 [1-methylnicotinamide, 1-Methylnicotinamide Triflate Salt]
relative rate ratio of 1-benzyl/1-methylnicotinamide [2]: 2.0
relative rate of regioselective reduction ([2]; disappearance of pyridinium signals vs [(CH3)4N]OTf during first 2 hours, compound (1a) set to 1.0): 0.5

CCN(CC)C(=O)c1ccc[n+](Cc2ccccc2)c1 [Compound 1c, 1-Benzyl-N,N-diethylnicotinamide, Triflate Salt]
catalytic hydride transfer [2]: not observed

N#Cc1ccc[n+](Cc2ccccc2)c1.O=S(=O)([O-])C(F)(F)F [Compound 1g, 1-Benzyl-3-cyanopyridinium triflate]
competitive rate [6]: 0.8

NC(=S)c1ccc[n+](Cc2ccccc2)c1 [Compound 1d, 1-Benzylthionicotinamide, Triflate Salt]
times faster than compound (1) [6]: 1.3 times
